Source: a melting point compilation (Tetko et al.; mined from patent text by program, amines drawn as free bases though some values may be those of a salt)

| Structure (SMILES) | melting point [°C] |
| --- | --- |
| CCNC(c1ccccc1)(c1ccccc1)c1ccccc1 | 75 to 77 |
| OC(CCN1CCC(c2ccc(F)cc2)CC1)c1ccc(-c2ccccc2)cc1 (configuration not stated) | 129 to 132 |
| Cc1ccc2nccc(Cl)c2c1 | 47 to 51 |
| COc1ccc(C2(C#N)CCC(C(N)=O)CC2)cc1OC1CCCC1 (configuration not stated) | 100 to 102 |
| Cc1[nH]cnc1CCC(=O)N(C)C | 62 to 64 |
| O=C1COc2cc(CN3CCN(c4ccccc4)CC3)ccc2N1 | 191 to 193 |
| CCCCCCCOC(=O)Oc1ccncc1 | 44 to 50 |
| CNC(=O)Nc1cc(OC)ccc1Br | 164 to 166 |
| Cc1nnc2n1-c1sc(CCc3ccccc3)cc1C(c1ccccc1Cl)=NC2 | 106 to 108 |
| CC1CCCC(C)N1Cc1ccc2cc(NC(=O)c3ccc(-c4ccc(F)cc4)cc3)ccc2n1 (configuration not stated) | 187 to 188 |
| COP(=O)(NNC(C)(C)C)OC | 61 to 68 |
| O=C(Nc1ccc(F)cc1F)c1cc(-c2ccc(F)cc2F)ccc1O | 233 to 234 |
| COc1ccc(-c2cncc(C#N)c2Nc2ccc3[nH]ccc3c2)cc1Br | 148 to 150 |
| Nc1ccc2c3c1c(=O)c(C(=O)O)cn3CCC2 | > 300 |
| COc1cc2c(cc1OC)C(=O)C(=Cc1ccc(O)cc1)CC2 | 197 to 199 |
| Nc1nc(=O)n(C2OC(CO)CC2F)cc1F (configuration not stated) | 209 to 210 |
| COC(=O)c1ccc(Cl)c(C=O)c1SC | 66.5 to 68.1 |
| CC(C)CCS(=O)(=O)NC(=O)/C=C/c1cc(C2CC2)nn1Cc1ccc(C(F)(F)F)cc1Cl | 145 to 147 |
| CSC(=S)N(C)N=Cc1ccco1 | 103 |
| CC(=O)OC1C=CC2(C)C(=CCC3C2CCC2(C)C(C(C)CCCC(C)C)CCC32)C1 (configuration not stated) | 73 to 75 |
| COc1c(N)cc(C)cc1N | 67 to 69 |
| c1ccc(Oc2cccc3c2CCN(Cc2c[nH]c4ncccc24)C3)cc1 | 179 to 180 |

| Structure (SMILES) | melting point [°C] |
| --- | --- |
| Cc1cc2c(cc1C)C1(CO2)C(=O)N(C(c2ccccc2)c2ccccc2)c2ccccc21 (configuration not stated) | 193 to 195 |
| COc1cccc(C23CCC(=O)C(C2)NC3=O)c1 (configuration not stated) | 138 to 139 |
| O=C1CCC(c2ccccc2)(c2ccccc2)CN1 | 177 to 180 |
| CC(C)n1cc(Nc2nc(-c3ccc4cn[nH]c4c3)cn3ccnc23)cn1 | > 250 |
| CCOc1cccc(N2CCN(CCCCOc3ccc4c(n3)NC(=O)CC4)CC2)c1Cl | 110 to 112 |
| O=[N+]([O-])c1ccc(-c2cc3c(Nc4cccc(Cl)c4)ncnc3[nH]2)cc1 | > 250 |
| C[C@H](NN1C(=O)c2ccccc2S1(=O)=O)C(=O)N[C@@H](Cc1ccccc1)C(=O)O | 190 to 193 |
| CC(=O)OC1CSC(Oc2ccc(-c3c(C)n[nH]c3C)nc2)C(OC(C)=O)C1OC(C)=O (configuration not stated) | 154 |
| Nc1cc(NC(=O)c2ccc(F)c(F)c2)ccc1F | 135 to 142 |
| CCNn1cc(C(=O)O)c(=O)c2cc(F)c(N3CCNCC3)cc21 | 289 to 291 |
| O=NN1CCc2cc(Cl)ccc21 | 120 to 122 |
| COc1cccc(-c2ccc(C(O)C(F)(F)F)cc2)c1 (configuration not stated) | 108 |
| CN(C)C(=O)c1cc(-c2ccc(-c3ccco3)cc2)n(-c2ccc(S(C)(=O)=O)c(F)c2)n1 | 167 to 168 |
| O=C1Nc2ccccc2C2(c3ccccc3)OCCN12 (configuration not stated) | 194 |
| CCCCNC(=O)n1c(=S)[nH]c2ccccc21 | 179 to 180 |
| COC(=O)n1cc(C=O)c(-c2ccc([N+](=O)[O-])o2)n1 | 187 to 189 |
| C=C1CN(c2c(F)cc3c(=O)c(C(=O)O)cn(C4CC4)c3c2F)CC1NC (configuration not stated) | 239 to 243 |
| COC(=O)C1=C(C)NC(C)=C(C(=O)OCCCCCCOc2cc(-c3ccc4c(c3)OCO4)[nH]n2)C1c1cccc([N+](=O)[O-])c1 (configuration not stated) | 167 to 169 |
| Cc1cc(C2CC2)nc(N)n1 | 113 to 115 |
| Fc1ccc(CC2C=CC(OCc3ccccc3)=C3N=C4CCCCC4=C32)cc1 (configuration not stated) | 134 to 135 |
| NS(=O)(=O)c1ccc(-c2cnn(Cc3ccc(F)c(F)c3F)c(=O)c2-c2ccc(F)cc2)cc1 | 218 to 220 |
| CC(C#N)c1cccc2c(-c3ccc(Cl)cc3)nccc12 (configuration not stated) | 128 to 130 |

| Structure (SMILES) | melting point [°C] |
| --- | --- |
| Cc1ccc(C(=O)N2CCOCC2)cc1[N+](=O)[O-] | 108 to 110 |
| CCCCCCCNC(=O)N(C)c1cccc(-c2ccc(CC3SC(=O)NC3=O)cc2)c1 (configuration not stated) | 55 |
| N#Cc1cc(-n2c3ccccc3[nH]c(=N)[nH]c3ccccc32)ccc1Cl | 225 to 228 |
| CC(=O)Nc1ccc(S(=O)c2ccccc2)cc1 (configuration not stated) | 135 to 137 |
| Clc1ccc2c(C3=CCN(CCNc4ccccn4)CC3)c[nH]c2c1 | 217 to 219 |
| CCN1CC(NC(=O)c2ccc(OCC=C(C)CCC=C(C)C)cc2)CN1CC | 95.5 to 97 |
| N#Cc1cccnc1N1CCN(CC(=O)Nc2ccccc2)CC1 | 110 to 112 |
| CCCCC(CC)Cn1c(O)c(N=Nc2ccc(S(=O)(=O)N(CCO)CCO)cc2)c(C)c(C#N)c1=O (configuration not stated) | 189 to 190 |
| COc1cc(C(=O)C=Cc2ccc(Br)cc2)ccc1OC1CCCCO1 (configuration not stated) | 142 to 145 |
| Cc1nc(-c2ccc(O)c(C)c2O)no1 | 224 to 225 |
| NS(=O)(=O)c1ccc(NC(=O)[C@@H]2CCCN2C(=O)OCc2ccccc2)cc1 | 165 to 166 |
| COc1ccc(-c2ccc3cnc(Nc4cc5c(cc4F)CCC(=O)N5)nn23)cn1 | 295 |
| CCN(CC)CCCOc1ccc(C(O)(CC)c2cccc(C(F)(F)F)c2)cc1 (configuration not stated) | 44 to 46 |
| COc1ccc(NC(=O)C(=O)N2CCC(Cc3ccccc3)CC2)cc1 | 144 to 146 |
| CCOC(=O)C1CCCN(c2ccc([N+](=O)[O-])c(C=C3NC(=O)NC3=O)c2)C1 (configuration not stated) | 223 to 225 |
| O=C(CCl)c1cc(Br)ccc1O | 79 |
| CC12CC(CCF)C3C4CCC(=O)C=C4CCC3C1CCC2=O (configuration not stated) | 85 |
| Oc1ccccc1-c1ccncc1 | 218 to 220 |
| CN1C2CCCC1CC(c1ccc(I)nn1)C2 (configuration not stated) | 163 to 166 |
| N#Cc1cc(-n2cnnc2)cc(C(F)(F)F)c1N | 283 |

The remaining lines, values ahead:

| melting point [°C] | Structure (SMILES) |
| --- | --- |
| 149 to 151 | COc1ccc2cc(OCc3ccccc3)c(N)cc2c1 |
| 220 | CON=CC(C)(C)NC(=O)c1c(I)cccc1C(=O)Nc1ccc(OC(C(F)(F)F)C(F)(F)F)nc1C |
| 233 to 234 | Nc1c(C(=O)c2cc(Cl)ccc2[N+](=O)[O-])[nH]c2cc(Cl)ccc12 |
| 128 | O=C1NC(=O)C(Cc2ccc(OCCON=Cc3cccc(-c4ccccc4)c3)cc2)S1 (configuration not stated) |
| 85 to 86 | CCOC(=O)CC(O)CC(O)C=Cc1c(-c2ccccc2)ccnc1C (configuration not stated) |
| 145 to 146 | CCOC(=O)c1c(C)nn2c(-c3cccnc3)ccnc12 |
| 191 | CCCCc1cn(Cc2ccc(-c3ccccc3C(=O)OC)cc2)c2cc(C(=O)N3CCCC3)ccc2c1=O |
| 119 to 120 | COc1cc(CC(=O)NCCCc2ccc(C)c(C)c2)ccc1OCCNCCN |
| 129 to 130 | Cc1cc(CCC(=O)OC(C)(C)C)cc(-c2nc(=O)c3ccccc3s2)n1 |
| 164 to 166 | Cc1c(NC(=O)CC(C)(C)C)c(C)c2c(c1-c1nccs1)OCC2c1ccc(C(C)C)cc1 (configuration not stated) |
| 235 to 238 | CCc1cccc(C)c1CNc1cc(C(=O)O)nc2c1nc(C)n2C |
| 137 to 139 | CC1=C(C(=O)OC(C)C)C(c2ccccc2F)n2nncc2N1 (configuration not stated) |
| 76 | CCCc1cc(C(O)(CC)CC)ccc1-c1cc(CCc2ccc(CO)c(CO)c2)ccc1C |
| 233 to 235 | Cc1cc(C)nc(C(=O)c2[nH]c3ccc(Cl)cc3c2CC(=O)O)c1 |
| 235 to 238 | Oc1ccc2cc(-c3cnc(-c4ccccc4)o3)ccc2c1 |
| 73 to 75 | CN(C)C(=O)COC1c2ccccc2CCc2ccccc21 |
| 106 to 108 | CCOC(=O)CN1C(=O)[C@@H](N)CCc2ccccc21 |
| 82 to 83 | CC(C)(C)OC(=O)NCCCCCn1c(=O)c2cccc3ncc(c1=O)n32 |
| 149 to 151 | CCOC(=O)C(=Cc1cc(C(=O)OCC)c(=O)n2ccccc12)C(=O)OCC |

| melting point [°C] | Structure (SMILES) |
| --- | --- |
| 161 to 165 | Cc1nc2ccccn2c1-c1csc(Nc2ccc(C(=O)Nc3ccccc3N)cc2)n1 |
| 190 | COc1ccc(-c2nc3cc(F)ccc3s2)cc1OC(=O)c1ccccc1Cl |
| 118 to 120 | Cc1cc(C2(C(F)(F)F)C=NC(c3ccccc3)C2)ccc1NC(=O)c1cccc(I)c1C(=O)NC(C)C (configuration not stated) |
| 222 to 225 | NC(=O)c1ccccc1-c1n[nH]c(-c2ccccc2)n1 |
| 181 to 182 | O=C1N(Cc2cccc(Cl)n2)c2ccccc2C12COc1cc3c(cc12)OCCO3 (configuration not stated) |
| 276 to 285 | Cc1cc2nc(C(=O)O)c(=O)[nH]c2cc1C |
| 131 to 133 | COc1ccc(-c2cnn3ccc(-c4ccc(OCCCNC(=O)OC(C)(C)C)c(OC)c4)nc23)cc1OC |
| 89 to 92 | Cn1nc(C(=O)C(=O)c2ccccc2)ccc1=O |
| 88 to 91 | CON(C)C(=O)Nc1ccc(CN2OCCC(C)(SC)C2=O)c(Cl)c1 (configuration not stated) |
| 236 to 237 | CCOc1ccc(-c2nc(-c3cc(C(=O)O)ccn3)cs2)cc1OCC |
| 111 to 113 | COc1ccccc1CNc1nccc2ccccc12 |
| 64 | CCCCOc1cc(CCC(=O)O)ccc1CCCc1ccc(OCCCC)c(OC)c1 |
| 112 to 114 | CCOC(=O)c1oc2cc(SC(=O)N(C)C)ccc2c1C |
| 216 to 218 | CC(=O)N1CCC2(CC1)CN=C(c1cc3cccc(N(C)S(=O)(=O)c4cccs4)c3[nH]1)S2 |
| > 300 | O=c1[nH]c2cc3ccccc3cc2nc1-c1cc(O)c(O)c([N+](=O)[O-])c1 |
| > 270 | Nc1nnc(-c2cc3c(Oc4ccc(Cl)cc4)cncc3s2)[nH]1 |
| 173 | CCOc1ccc2c(c1)N=C(c1cccc(-c3ccc(C)nc3)c1)CC(=O)N2 |
| 288 to 289 | Cn1c(-c2cc(C(C)(C)C)c(O)c(C(C)(C)C)c2)cnc1S |
| 73 to 75 | CCC(CC)Oc1cc(C)nc(Nc2c(C)cc(C)cc2C)c1N |
